Measurements as given in article PMC9898036, “VIP152 is a selective CDK9 inhibitor with pre-clinical in vitro and in vivo efficacy in chronic lymphocytic leukemia” (Leukemia, 2022).
Read-outs that look alike come from different tables or passages of the source.

Experiments:
Experiment in all cases: DiscoverX KINOMEscan kinase profiling (468 assays)
Format in all cases: binding
[1] = biological target: human kinome (Homo sapiens, UniProt O00329); conditions: read-out: Percent Control
How it was run: (§1)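 DNA-tagged kinases competed for immobilized biotinylated ligands on streptavidin magnetic beads, with bound kinase quantified by qPCR. VIP152 in DMSO was tested against a DMSO control.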

[2] = biological target: human kinome (Homo sapiens, UniProt O15530); conditions: read-out: Percent Control
Sequence of human kinome (Homo sapiens, UniProt O15530) (O15530 whole entry): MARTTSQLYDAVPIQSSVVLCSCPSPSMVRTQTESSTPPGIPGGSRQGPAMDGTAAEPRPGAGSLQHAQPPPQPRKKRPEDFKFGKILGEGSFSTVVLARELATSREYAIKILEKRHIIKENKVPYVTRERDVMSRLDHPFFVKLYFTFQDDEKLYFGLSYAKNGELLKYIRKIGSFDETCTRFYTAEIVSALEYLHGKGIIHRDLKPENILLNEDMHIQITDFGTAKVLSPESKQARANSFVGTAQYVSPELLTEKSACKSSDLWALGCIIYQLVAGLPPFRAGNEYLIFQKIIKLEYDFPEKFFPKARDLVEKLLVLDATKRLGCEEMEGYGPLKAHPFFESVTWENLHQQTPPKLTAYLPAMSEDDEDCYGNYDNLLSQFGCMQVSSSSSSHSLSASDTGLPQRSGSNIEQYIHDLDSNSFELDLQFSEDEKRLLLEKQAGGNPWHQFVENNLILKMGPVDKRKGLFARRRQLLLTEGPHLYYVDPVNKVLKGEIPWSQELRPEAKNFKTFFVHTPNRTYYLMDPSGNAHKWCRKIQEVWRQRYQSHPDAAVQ
How it was run: as §1

[3] = biological target: human kinome (Homo sapiens, UniProt O96017); conditions: CHEK2; 100 nM; read-out: Percent Control
How it was run: as §1

[4] = biological target: human kinome (Homo sapiens, UniProt P00533, DEL746-750); conditions: EGFR(E746-A750del); 100 nM; read-out: Percent Control
How it was run: as §1

[5] = biological target: human kinome (Homo sapiens, UniProt P07332); conditions: FES; 100 nM; read-out: Percent Control
How it was run: as §1

[6] = biological target: human kinome (Homo sapiens, UniProt P08581, Y1235D); conditions: MET(Y1235D); 100 nM; read-out: Percent Control
How it was run: as §1

[7] = biological target: human kinome (Homo sapiens, UniProt P22455); conditions: FGFR4; 100 nM; read-out: Percent Control
How it was run: as §1

[8] = biological target: human kinome (Homo sapiens, UniProt P27037); conditions: ACVR2A; 100 nM; read-out: Percent Control
How it was run: as §1

[9] = biological target: human kinome (Homo sapiens, UniProt P29597); conditions: compound concentration 1000 nM, read-out: Percent Control
How it was run: as §1

[10] = biological target: human kinome (Homo sapiens, UniProt P36888, N841I); conditions: FLT3(N841I); 100 nM; read-out: Percent Control
How it was run: as §1

[11] = biological target: human kinome (Homo sapiens, UniProt P42336, E542K); conditions: read-out: Percent Control
Sequence of human kinome (Homo sapiens, UniProt P42336, E542K) (P42336 whole entry E542K): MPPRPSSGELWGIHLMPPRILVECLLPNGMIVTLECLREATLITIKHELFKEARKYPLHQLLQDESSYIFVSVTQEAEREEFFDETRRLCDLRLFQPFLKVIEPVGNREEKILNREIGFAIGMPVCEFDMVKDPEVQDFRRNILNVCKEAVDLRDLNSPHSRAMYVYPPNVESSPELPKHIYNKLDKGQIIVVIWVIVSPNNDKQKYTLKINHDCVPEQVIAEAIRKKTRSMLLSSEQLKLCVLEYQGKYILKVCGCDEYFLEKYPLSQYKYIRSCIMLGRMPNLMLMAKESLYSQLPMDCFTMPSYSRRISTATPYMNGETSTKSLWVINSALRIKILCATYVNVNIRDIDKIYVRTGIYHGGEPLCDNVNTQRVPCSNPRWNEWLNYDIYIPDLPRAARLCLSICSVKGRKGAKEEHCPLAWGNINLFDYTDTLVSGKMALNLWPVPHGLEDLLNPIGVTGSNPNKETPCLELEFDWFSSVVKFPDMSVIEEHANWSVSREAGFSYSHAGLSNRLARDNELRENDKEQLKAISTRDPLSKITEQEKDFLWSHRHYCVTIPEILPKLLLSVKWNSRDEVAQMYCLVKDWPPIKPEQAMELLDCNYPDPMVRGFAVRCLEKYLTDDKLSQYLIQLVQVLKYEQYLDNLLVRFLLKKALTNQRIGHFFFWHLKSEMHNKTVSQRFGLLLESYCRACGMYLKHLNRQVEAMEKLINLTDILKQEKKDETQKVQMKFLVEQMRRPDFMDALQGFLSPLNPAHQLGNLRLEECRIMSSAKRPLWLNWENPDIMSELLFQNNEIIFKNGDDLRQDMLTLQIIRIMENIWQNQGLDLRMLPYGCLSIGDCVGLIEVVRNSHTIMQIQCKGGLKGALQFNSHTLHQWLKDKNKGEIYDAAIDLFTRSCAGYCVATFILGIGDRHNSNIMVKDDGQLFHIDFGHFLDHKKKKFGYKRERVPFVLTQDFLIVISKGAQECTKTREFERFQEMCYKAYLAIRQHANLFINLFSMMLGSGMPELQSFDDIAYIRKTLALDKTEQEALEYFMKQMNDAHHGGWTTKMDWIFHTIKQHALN
How it was run: as §1

[12] = biological target: human kinome (Homo sapiens, UniProt P42336, H1047L); conditions: read-out: Percent Control
Sequence of human kinome (Homo sapiens, UniProt P42336, H1047L) (P42336 whole entry H1047L): as the sequence (P42336 whole entry E542K) above, with K542E, H1047L counted along it
How it was run: as §1

[13] = biological target: human kinome (Homo sapiens, UniProt P42345); conditions: MTOR; 100 nM; read-out: Percent Control
How it was run: as §1

[14] = biological target: human kinome (Homo sapiens, UniProt P53355); conditions: DAPK1; 100 nM; read-out: Percent Control
How it was run: as §1

[15] = biological target: human kinome (Homo sapiens, UniProt P53667); conditions: LIMK1; 100 nM; read-out: Percent Control
How it was run: as §1

[16] = biological target: human kinome (Homo sapiens, UniProt Q00526); conditions: CDK3; 100 nM; read-out: Percent Control
Sequence of human kinome (Homo sapiens, UniProt Q00526) (Q00526 whole entry): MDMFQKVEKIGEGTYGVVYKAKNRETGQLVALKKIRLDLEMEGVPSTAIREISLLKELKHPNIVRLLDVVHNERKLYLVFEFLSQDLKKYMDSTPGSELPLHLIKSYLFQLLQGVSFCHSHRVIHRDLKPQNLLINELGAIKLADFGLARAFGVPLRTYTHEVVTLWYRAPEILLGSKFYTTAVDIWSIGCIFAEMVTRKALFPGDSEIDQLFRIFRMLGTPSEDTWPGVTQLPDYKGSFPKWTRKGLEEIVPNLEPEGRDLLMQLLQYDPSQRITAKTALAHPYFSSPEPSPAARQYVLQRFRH
How it was run: as §1

[17] = biological target: human kinome (Homo sapiens, UniProt Q04759); conditions: read-out: Percent Control
Sequence of human kinome (Homo sapiens, UniProt Q04759) (Q04759 whole entry): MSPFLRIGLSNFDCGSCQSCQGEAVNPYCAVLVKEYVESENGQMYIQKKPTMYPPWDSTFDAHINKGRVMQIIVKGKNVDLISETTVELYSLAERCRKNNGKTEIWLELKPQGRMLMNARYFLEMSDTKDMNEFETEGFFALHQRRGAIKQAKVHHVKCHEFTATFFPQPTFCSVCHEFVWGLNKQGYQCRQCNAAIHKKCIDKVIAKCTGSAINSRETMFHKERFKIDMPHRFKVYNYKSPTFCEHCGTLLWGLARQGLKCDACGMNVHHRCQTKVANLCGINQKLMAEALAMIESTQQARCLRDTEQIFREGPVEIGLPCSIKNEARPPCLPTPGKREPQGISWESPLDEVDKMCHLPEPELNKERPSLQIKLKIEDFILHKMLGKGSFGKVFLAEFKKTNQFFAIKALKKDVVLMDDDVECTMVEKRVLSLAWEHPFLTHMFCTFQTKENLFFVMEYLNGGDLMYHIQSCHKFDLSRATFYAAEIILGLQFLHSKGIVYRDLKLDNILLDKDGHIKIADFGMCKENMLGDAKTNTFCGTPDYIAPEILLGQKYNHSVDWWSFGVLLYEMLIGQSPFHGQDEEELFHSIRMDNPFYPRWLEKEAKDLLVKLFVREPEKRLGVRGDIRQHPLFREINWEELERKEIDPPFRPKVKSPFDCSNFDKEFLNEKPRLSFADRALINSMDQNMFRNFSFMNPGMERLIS
How it was run: as §1

[18] = biological target: human kinome (Homo sapiens, UniProt Q04771); conditions: ACVR1; 100 nM; read-out: Percent Control
How it was run: as §1

[19] = biological target: human kinome (Homo sapiens, UniProt Q13188); conditions: MST2 (Entrez STK3); 100 nM; read-out: Percent Control
How it was run: as §1

[20] = biological target: human kinome (Homo sapiens, UniProt Q16566); conditions: CAMK4; 100 nM; read-out: Percent Control
How it was run: as §1

[21] = biological target: human kinome (Homo sapiens, UniProt Q7KZI7); conditions: MARK2; 100 nM; read-out: Percent Control
How it was run: as §1

[22] = biological target: human kinome (Homo sapiens, UniProt Q8IVW4); conditions: CDKL3; 100 nM; read-out: Percent Control
How it was run: as §1

[23] = biological target: human kinome (Homo sapiens, UniProt Q8N568); conditions: DCAMKL2 (Entrez DCLK2); 100 nM; read-out: Percent Control
How it was run: as §1

[24] = biological target: human kinome (Homo sapiens, UniProt Q9NRH2); conditions: kinase SNRK (Entrez SNRK); compound concentration 1000 nM; read-out: Percent Control
How it was run: as §1

[25] = biological target: human kinome (Homo sapiens, UniProt Q9UBF8); conditions: read-out: Percent Control
Sequence of human kinome (Homo sapiens, UniProt Q9UBF8) (Q9UBF8 whole entry): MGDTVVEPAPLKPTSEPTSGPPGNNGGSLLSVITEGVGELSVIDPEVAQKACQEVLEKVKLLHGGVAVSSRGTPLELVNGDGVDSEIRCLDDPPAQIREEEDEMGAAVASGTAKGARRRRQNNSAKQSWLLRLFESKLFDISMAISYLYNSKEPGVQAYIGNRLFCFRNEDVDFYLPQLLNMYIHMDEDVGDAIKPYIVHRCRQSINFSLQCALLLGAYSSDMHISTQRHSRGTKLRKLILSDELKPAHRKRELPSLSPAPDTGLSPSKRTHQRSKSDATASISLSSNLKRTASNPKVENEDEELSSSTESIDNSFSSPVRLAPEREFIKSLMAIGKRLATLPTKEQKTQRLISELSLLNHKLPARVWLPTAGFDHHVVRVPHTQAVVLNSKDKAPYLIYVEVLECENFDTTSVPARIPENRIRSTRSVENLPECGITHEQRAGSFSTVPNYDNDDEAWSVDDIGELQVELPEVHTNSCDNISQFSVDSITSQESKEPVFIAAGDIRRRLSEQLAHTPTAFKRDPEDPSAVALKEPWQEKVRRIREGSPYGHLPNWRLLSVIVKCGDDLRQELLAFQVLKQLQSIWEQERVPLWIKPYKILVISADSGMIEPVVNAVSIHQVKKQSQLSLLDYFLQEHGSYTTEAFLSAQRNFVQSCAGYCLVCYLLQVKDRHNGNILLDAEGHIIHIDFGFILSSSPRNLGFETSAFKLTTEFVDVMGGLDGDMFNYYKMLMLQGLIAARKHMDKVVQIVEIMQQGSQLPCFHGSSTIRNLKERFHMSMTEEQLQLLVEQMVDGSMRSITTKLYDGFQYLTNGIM
How it was run: as §1

[26] = biological target: human kinome (Homo sapiens, UniProt Q9UKE5); conditions: kinase TNIK (Entrez TNIK); compound concentration 1000 nM; read-out: Percent Control
How it was run: as §1

[27] = biological target: human kinome (Homo sapiens, UniProt Q9Y2H1); conditions: read-out: Percent Control
Sequence of human kinome (Homo sapiens, UniProt Q9Y2H1) (Q9Y2H1 whole entry): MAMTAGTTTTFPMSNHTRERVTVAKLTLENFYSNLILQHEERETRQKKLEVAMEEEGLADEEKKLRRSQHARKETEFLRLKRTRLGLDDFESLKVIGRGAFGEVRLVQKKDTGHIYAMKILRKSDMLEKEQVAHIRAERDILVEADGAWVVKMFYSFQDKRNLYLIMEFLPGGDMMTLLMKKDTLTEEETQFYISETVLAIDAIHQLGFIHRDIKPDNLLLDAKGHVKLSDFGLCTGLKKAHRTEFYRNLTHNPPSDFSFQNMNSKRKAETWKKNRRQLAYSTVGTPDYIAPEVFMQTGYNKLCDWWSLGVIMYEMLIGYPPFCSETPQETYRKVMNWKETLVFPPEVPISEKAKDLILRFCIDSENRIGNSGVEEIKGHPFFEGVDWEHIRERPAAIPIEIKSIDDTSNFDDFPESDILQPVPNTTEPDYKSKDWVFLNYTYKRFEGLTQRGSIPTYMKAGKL
How it was run: as §1

[28] = biological target: human kinome (Homo sapiens, UniProt Q9Y2H9); conditions: MAST1; 100 nM; read-out: Percent Control
How it was run: as §1

[29] = tested on: human kinome; conditions: for Percent Control: 100 nM
How it was run: as §1

Sequence of human kinome (Homo sapiens, UniProt O00329) (O00329 whole entry): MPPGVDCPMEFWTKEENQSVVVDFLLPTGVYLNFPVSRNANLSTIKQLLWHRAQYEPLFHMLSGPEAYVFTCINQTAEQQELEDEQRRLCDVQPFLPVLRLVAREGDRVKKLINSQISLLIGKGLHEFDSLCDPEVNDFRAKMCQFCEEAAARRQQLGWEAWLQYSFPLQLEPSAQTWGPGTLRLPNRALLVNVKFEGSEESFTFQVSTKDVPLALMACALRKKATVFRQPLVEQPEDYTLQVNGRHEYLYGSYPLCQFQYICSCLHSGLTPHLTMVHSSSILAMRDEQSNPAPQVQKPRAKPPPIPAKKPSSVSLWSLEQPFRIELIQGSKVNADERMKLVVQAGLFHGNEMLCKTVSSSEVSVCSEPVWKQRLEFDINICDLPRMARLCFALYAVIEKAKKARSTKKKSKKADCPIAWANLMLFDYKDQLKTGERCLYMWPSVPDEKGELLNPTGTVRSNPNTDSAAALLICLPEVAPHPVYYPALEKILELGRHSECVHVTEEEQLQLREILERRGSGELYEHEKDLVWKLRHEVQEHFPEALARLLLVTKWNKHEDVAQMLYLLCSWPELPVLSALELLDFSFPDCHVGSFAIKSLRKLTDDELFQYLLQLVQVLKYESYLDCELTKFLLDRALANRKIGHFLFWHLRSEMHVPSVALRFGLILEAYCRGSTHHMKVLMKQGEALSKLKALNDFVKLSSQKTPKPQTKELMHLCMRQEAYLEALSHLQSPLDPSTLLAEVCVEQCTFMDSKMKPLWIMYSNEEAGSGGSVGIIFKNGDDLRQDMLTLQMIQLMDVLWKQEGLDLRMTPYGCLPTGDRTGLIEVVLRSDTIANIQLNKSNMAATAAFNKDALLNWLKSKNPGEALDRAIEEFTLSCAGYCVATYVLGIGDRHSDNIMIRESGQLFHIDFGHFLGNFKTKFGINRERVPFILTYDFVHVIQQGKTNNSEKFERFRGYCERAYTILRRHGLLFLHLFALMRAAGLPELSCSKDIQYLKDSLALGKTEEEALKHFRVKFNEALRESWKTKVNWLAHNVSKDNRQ

`COc1cc(F)ccc1-c1cc(Nc2cc(CS(C)(=N)=O)ccn2)ncc1F` (stereo not shown) [VIP152] gave a remaining binding at 0.1 µM ([1]; PIK3CD, 100 nM) of 100%, a remaining binding at 1 µM ([1]; kinase PIK3CD (Entrez PIK3CD), compound concentration 1000 nM) of 75% and a remaining binding at 0.1 µM ([2]; PDPK1, 100 nM) of 100%. For the same molecule, the remaining binding at 1 µM ([2]; kinase PDPK1 (Entrez PDPK1), compound concentration 1000 nM) was 100%, the remaining binding at 0.1 µM [3] was 100% and the remaining binding at 0.1 µM [4] was 100%. The remaining binding at 0.1 µM [5] was 100%, the remaining binding at 0.1 µM [6] was 82% and the remaining binding at 0.1 µM [7] was 100%. The remaining binding at 0.1 µM [8] was 91%, the remaining binding at 1 µM ([9]; kinase TYK2(JH1domain-catalytic) (Entrez TYK2)) was 44% and the remaining binding at 1 µM ([9]; kinase TYK2(JH2domain-pseudokinase) (Entrez TYK2)) was 4.8%. The remaining binding at 0.1 µM [10] was 66%, the remaining binding at 0.1 µM ([11]; PIK3CA(E542K), 100 nM) was 100% and the remaining binding at 1 µM ([11]; kinase PIK3CA(E542K) (Entrez PIK3CA), compound concentration 1000 nM) was 100%. It also gave a remaining binding at 0.1 µM ([12]; PIK3CA(H1047L), 100 nM) of 100%, a remaining binding at 1 µM ([12]; kinase PIK3CA(H1047L) (Entrez PIK3CA), compound concentration 1000 nM) of 100% and a remaining binding at 0.1 µM [13] of 59%. For the same molecule, the remaining binding at 0.1 µM [14] was 100%, the remaining binding at 0.1 µM [15] was 100% and the remaining binding at 0.1 µM [16] was 100%. It also gave a remaining binding at 0.1 µM ([17]; PRKCQ, 100 nM) of 100%, a remaining binding at 1 µM ([17]; kinase PRKCQ (Entrez PRKCQ), compound concentration 1000 nM) of 62% and a remaining binding at 0.1 µM [18] of 100%. It also gave a remaining binding at 0.1 µM [19] of 99%, a remaining binding at 0.1 µM [20] of 100% and a remaining binding at 0.1 µM [21] of 100%. For the same molecule, the remaining binding at 0.1 µM [22] was 100%, the remaining binding at 0.1 µM [23] was 100% and the remaining binding at 1 µM [24] was 90%. The remaining binding at 0.1 µM ([25]; PIK4CB (Entrez PI4KB), 100 nM) was 100%, the remaining binding at 1 µM ([25]; kinase PIK4CB (Entrez PI4KB), compound concentration 1000 nM) was 95% and the remaining binding at 1 µM [26] was 32%. For the same molecule, the remaining binding at 0.1 µM ([27]; NDR2 (Entrez STK38L), 100 nM) was 100%, the remaining binding at 1 µM ([27]; kinase NDR2 (Entrez STK38L), compound concentration 1000 nM) was 100% and the remaining binding at 0.1 µM [28] was 94%. The “Interactions Mapped” value ([29]; @100nM, 468 Assays Tested) was 4, the “Percent Control” value ([29]; EGFR(L747-E749del, A750P)) was 100% and the “Percent Control” value ([29]; EGFR(L747-S752del, P753S)) was 93%. The “Percent Control” value ([29]; EGFR(L747-T751del,Sins)) was 100%, the “Percent Control” value ([29]; FLT3(ITD)) was 100% and the “Percent Control” value ([29]; FLT3(ITD,D835V)) was 100%. The “Percent Control” value ([29]; FLT3(ITD,F691L)) was 99%.
